Source: patent publication US11345711B2, “8,9-dihydroimidazo[1,2-a]pyrimido[5,4-e]pyrimidin-5(6H)-ones” (IMPACT THERAPEUTICS (SHANGHAI), INC, priority 2016, dated 2022)
Read-outs that look alike come from different tables or passages of the source.

How the values were obtained:
[1] = target: Wee1 (h) (Homo sapiens, UniProt P30291); test: Wee1 kinase (h) detection method, [γ-33P]-ATP filter assay; type: biochemical
[2] = test system: LoVo cells; test: MTT based cell viability assay on LoVo cells; conditions: Homo sapiens, LoVo, 72 h, 3 d, read-out: IC50, growth inhibition of LoVo cells
Procedure, shortened: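 Inhibition of LoVo proliferation was derived as IC50 from a sigmoidal dose-response fit of cell survival. Readout was MTT (0.5 mg/mL, 4 h) with absorbance at 552/630/690 nm, after 3-day treatment at 37 °C. Eight-point series from 10 μM to 0.01 μM, DMSO control, 1% DMSO final.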

[3] = test system: NCI-H1299 cells; test: MTT based cell viability assay on NCI-H1299 cells; conditions: Homo sapiens, read-out: IC50, growth inhibition of NCI-H1299 cells
Procedure, shortened: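 Viability read-out was MTT reduction (0.5 mg/mL, 4 h, absorbance 552/630/690 nm) after 3-day compound exposure at 37 °C of NCI-H1299 cells seeded at 1000 per well. Dilutions spanned 10 μM–0.01 μM in DMSO, final DMSO 1‰. Survival-versus-concentration curves were fitted sigmoidally to give IC50.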

Sequence of Wee1 (h) (P30291 whole entry): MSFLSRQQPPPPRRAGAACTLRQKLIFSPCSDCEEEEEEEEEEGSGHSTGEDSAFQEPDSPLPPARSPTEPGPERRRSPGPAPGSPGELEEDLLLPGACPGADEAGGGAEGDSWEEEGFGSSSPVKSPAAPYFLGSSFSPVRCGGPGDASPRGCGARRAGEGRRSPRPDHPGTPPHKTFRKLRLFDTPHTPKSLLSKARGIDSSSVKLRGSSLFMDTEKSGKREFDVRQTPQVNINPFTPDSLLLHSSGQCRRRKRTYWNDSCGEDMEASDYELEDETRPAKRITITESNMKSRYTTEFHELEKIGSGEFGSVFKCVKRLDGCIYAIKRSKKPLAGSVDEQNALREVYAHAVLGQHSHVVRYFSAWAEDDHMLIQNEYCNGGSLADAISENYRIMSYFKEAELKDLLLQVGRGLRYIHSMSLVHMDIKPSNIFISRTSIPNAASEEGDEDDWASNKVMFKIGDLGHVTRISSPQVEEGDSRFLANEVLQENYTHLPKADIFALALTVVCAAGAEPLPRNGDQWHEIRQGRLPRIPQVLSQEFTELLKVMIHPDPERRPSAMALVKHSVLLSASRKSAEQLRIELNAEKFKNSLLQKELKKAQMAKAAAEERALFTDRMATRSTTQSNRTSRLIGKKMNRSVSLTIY

| Inh. (%) of Wee1 kinase enzyme activity ([1]; C 1 μm compound) [%] | IC50 [2] [µM] | IC50 ([3]; NCI-H1299 cells) [µM] | Inh. (%) of Wee1 kinase enzyme activity ([1]; C 0.01 μm compound) [%] | Inh. (%) of Wee1 kinase enzyme activity ([1]; C 0.1 μm compound) [%] | IC50 ([3]; NCI-H1299, NCI-H1299 cells) [µM] | SMILES |
| --- | --- | --- | --- | --- | --- | --- |
| 75 | > 100 | > 10 | – | – | – | CN1CCN(c2ccc(Nc3ncc4c(n3)N3CCN=C3N(c3ccc(Cl)cc3Cl)C4=O)cc2)CC1 [Example 87, 6-(2,4-Dichlorophenyl)-2-((4-(4-methylpiperazin-1-yl)phenyl)amino)-8,9-dihydroimidazo[1,2-a]pyrimido[5,4-e]pyrimidin-5(6H)-one] |
| 94 | 0.0563 | – | 30 | 84 | 0.235 | COc1cc(Nc2ncc3c(n2)N2CCN=C2N(c2c(Cl)cccc2Cl)C3=O)cc(Cl)c1N1CCN(C)CC1 [Example 153, 6-(2,6-Dichlorophenyl)-2-((3-chloro-5-methoxy-4-(4-methylpiperazin-1-yl)phenyl)amino)-8,9-dihydroimidazo[1,2-a]pyrimido[5,4-e]pyrimidin-5(6H)-one] |
| 75 | > 100 | > 3 | – | – | – | CN1CCN(c2ccc(Nc3ncc4c(n3)N3CCN=C3N(c3ccc(F)cc3Cl)C4=O)cc2)CC1 [Example 88, 6-(2-Chloro-4-fluorophenyl)-2-((4-(4-methylpiperazin-1-yl)phenyl)amino)-8,9-dihydroimidazo[1,2-a]pyrimido[5,4-e]pyrimidin-5(6H)-one] |
| 95 | 0.0969 | 0.543 | 43 | 86 | – | C[C@@H]1CN(c2ccc(Nc3ncc4c(n3)N3CCN=C3N(c3c(F)cccc3Cl)C4=O)cc2C(F)(F)F)C[C@H](C)N1C [Example 49, 6-(2-Chloro-6-fluorophenyl)-2-((3-trifluoromethyl-4-((3S,5R)-3,4,5-trimethylpiperazin-1-yl)phenyl)amino)-8,9-dihydroimidazo[1,2-a]pyrimido[5,4-e]pyrimidin-5(6H)-one] |
| 95 | 2.86 | 70.6 | – | – | – | O=C1c2cnc(Nc3ccc(N4CCNCC4)c(CO)c3)nc2N2CCN=C2N1c1c(F)cccc1Cl [Example 179, 6-(2-Chloro-6-fluorophenyl)-2-((3-(hydroxymethyl)-4-(piperazin-1-yl)phenyl)amino)-8,9-dihydroimidazo[1,2-a]pyrimido[5,4-e]pyrimidin-5(6H)-one] |
| 96 | 1.15 | 0.884 | – | – | – | CN(C)CCN(C)c1ccc(Nc2ncc3c(n2)N2CCN=C2N(c2c(F)cccc2Cl)C3=O)cc1 [Example 109, 6-(2-Chloro-6-fluorophenyl)-2-((4-((2-(dimethylamino)ethyl)(methyl)amino)phenyl)amino)-8,9-dihydroimidazo[1,2-a]pyrimido[5,4-e]pyrimidin-5(6H)-one] |
| 97 | 0.373 | 0.911 | 40 | 85 | – | CN(C)CCOc1ccc(Nc2ncc3c(n2)N2CCN=C2N(c2c(F)cccc2Cl)C3=O)cc1 [Example 105, 6-(2-Chloro-6-fluorophenyl)-2-((4-(2-(dimethylamino)ethoxy)phenyl)amino)-8,9-dihydroimidazo[1,2-a]pyrimido[5,4-e]pyrimidin-5(6H)-one] |
| 96 | 0.265 | – | 34 | 81 | 0.381 | CN(C)C1CCN(c2ccc(Nc3ncc4c(n3)N3CCN=C3N(c3c(F)cccc3Cl)C4=O)cc2)CC1 [Example 115, 6-(2-Chloro-6-fluorophenyl)-2-((4-(4-(dimethylamino)piperidin-1-yl)phenyl)amino)-8,9-dihydroimidazo[1,2-a]pyrimido[5,4-e]pyrimidin-5(6H)-one] |
